Data on 15 compounds can be found in publication PMC8510344, “Bile-Acid-Appended Triazolyl Aryl Ketones: Design, Synthesis, In Vitro Anticancer Activity and Pharmacokinetics in Rats” (Molecules, 2021).

Where only a bound is given, the exact number is not on record here.

Series [1] has as its system MCF-7 (human breast adenocarcinoma) cells. The series is described as follows: MTT cytotoxicity assay, MCF-7. Format: cell-based. The settings on record: for viability at 10 µM: MCF7, 10 µM, 48 h exposure, read-out: % Cell Viability at 10 µM MCF-7; for IC50: 48 h. How it is done: (§1) The cytotoxicity activity of all the conjugates (6aa–6df) was evaluated in vitro by MTT assay against two different breast cancer cell lines 4T1 (murine) and MCF-7 (human) and HEK 293 (human) as normal cell line. DTX was used as positive control. Cells were grown in DMEM supplemented with 10% FBS and 1% antibiotic solution and incubated at 5% CO2 and 37 °C for 24 h. The stock solutions of all the conjugates were prepared in DMSO and diluted for further use. Briefly, 5 × 10^3 cells/well were seeded in 96-well cell culture plates and allowed to adhere for 24 h. Cell inhibition (%) was determined after 48 h exposure to the compounds at 1–25 μM concentration. After 48 h, MTT assay was performed and the yellow tetrazolium salt (MTT) was reduced in metabolically active cells to form insoluble purple formazan crystals, which were solubilized by the addition of DMSO. The optical density (OD) was recorded at 560 nm and 630 nm as reference wavelength. Percentage cell inhibition was determined by comparison with untreated cells.

Series [2] concerns 4T1 (mouse mammary carcinoma) cells. The series is described as follows: MTT cytotoxicity assay, 4T1. It counts as cell-based. The conditions noted are these: for viability at 10 µM: 48 h exposure, read-out: % Cell Viability at 10 µM 4T1; for IC50: 48 h. How it is done:
as §1

Series [3] in a line: MTT cytotoxicity assay, normal cell line HEK 293. Format: cell-based. The conditions noted are these: human, HEK 293 cells, HEK 293 normal cells, 48 h exposure. How it is done:
as §1
A general note: Tetrazolium assays rely on reduction of a dye to a coloured formazan, in cell work by metabolically active cells.

What is called viability is a per cent measure of how many cells are alive, often set against a control. As usually defined, the melting point is the temperature, or range, at which the solid turns liquid. For the compound `C[C@H](CCC(=O)OCc1cn(CC(=O)c2ccccc2)nn1)C1CCC2C3C(C[C@H](O)[C@@]21C)[C@@]1(C)CC[C@@H](O)CC1C[C@H]3O` (stereo partly drawn) [6aa, (1-(2-Oxo-2-phenylethyl)-1H-1,2,3-triazol-4-yl)methyl (4R)-4-((3R,7R,10S,12S,13R)-3,7,12-trihydroxy-10,13-dimethylhexadecahydro-1H-cyclopenta[a]phenanthren-17-yl)pentanoate], the melting point lay within 108 to 109 °C. In addition, the viability at 10 µM in series [1] (Homo sapiens) worked out at 77.3%. The viability at 10 µM in series [2] (Mus musculus) came out at 74.3%. The viability at 48 h, 10 µM in series [3] came out at 86.1%.
On to `Cc1ccc(C(=O)Cn2cc(COC(=O)CC[C@@H](C)C3CCC4C5C(C[C@H](O)[C@@]43C)[C@@]3(C)CC[C@@H](O)CC3C[C@H]5O)nn2)cc1` (stereo partly drawn) [6ab, (1-(2-Oxo-2-(p-tolyl)ethyl)-1H-1,2,3-triazol-4-yl)methyl (4R)-4-((3R,7R,10S,12S,13R)-3,7,12-trihydroxy-10,13-dimethylhexadecahydro-1H-cyclopenta[a]phenanthren-17-yl)pentanoate], for which the results for the viability at 10 µM in series [1] (Homo sapiens) and in series [2] (Mus musculus) were 57.4% and 72.9%, respectively. In series [3], the viability at 48 h, 10 µM was found to be 87.6%.
On to `COc1ccc(C(=O)Cn2cc(COC(=O)CC[C@@H](C)C3CCC4C5C(C[C@H](O)[C@@]43C)[C@@]3(C)CC[C@@H](O)CC3C[C@H]5O)nn2)cc1` (stereo partly drawn) [6ac, (1-(2-(4-Methoxyphenyl)-2-oxoethyl)-1H-1,2,3-triazol-4-yl)methyl (4R)-4-((3R,7R,10S,12S,13R)-3,7,12-trihydroxy-10,13-dimethylhexadecahydro-1H-cyclopenta[a]phenanthren-17-yl)pentanoate], for which the melting point is 176 to 177 °C. For the same compound, the viability at 10 µM in series [1] (Homo sapiens) worked out at 55.6%. Moreover, the viability at 10 µM in series [2] (Mus musculus) was 80%. The compound also displayed a viability at 48 h, 10 µM in series [3] of 87.9%.
In turn, `C[C@H](CCC(=O)OCc1cn(CC(=O)c2ccc(F)cc2)nn1)C1CCC2C3C(C[C@H](O)[C@@]21C)[C@@]1(C)CC[C@@H](O)CC1C[C@H]3O` (stereo partly drawn) [6ad, (1-(2-(4-Fluorophenyl)-2-oxoethyl)-1H-1,2,3-triazol-4-yl)methyl (4R)-4-((3R,7R,10S,12S,13R)-3,7,12-trihydroxy-10,13-dimethylhexadecahydro-1H-cyclopenta[a]phenanthren-17-yl)pentanoate] returned a melting point of 152 to 153 °C. For the same compound, the viability at 10 µM in series [1] (Homo sapiens) was 66.5%. The viability at 10 µM in series [2] (Mus musculus) was 47.7%. Also, the viability at 48 h, 10 µM in series [3] worked out at 86.8%.
In turn, `C[C@H](CCC(=O)OCc1cn(CC(=O)c2ccc(Cl)cc2)nn1)C1CCC2C3C(C[C@H](O)[C@@]21C)[C@@]1(C)CC[C@@H](O)CC1C[C@H]3O` (stereo partly drawn) [6ae, (1-(2-(4-Chlorophenyl)-2-oxoethyl)-1H-1,2,3-triazol-4-yl)methyl (4R)-4-((3R,7R,10S,12S,13R)-3,7,12-trihydroxy-10,13-dimethylhexadecahydro-1H-cyclopenta[a]phenanthren-17-yl)pentanoate] had a melting point of 153 to 154 °C. For the same compound, the viability at 10 µM in series [1] (Homo sapiens) is 79.6%. For the same compound, in series [2] (Mus musculus), the viability at 10 µM worked out at 58.9%. This compound came in with a viability at 48 h, 10 µM in series [3] of 96.2%.
`C[C@H](CCC(=O)OCc1cn(CC(=O)c2ccccc2)nn1)C1CCC2C3CCC4C[C@H](O)CC[C@]4(C)C3C[C@H](O)[C@@]21C` (stereo partly drawn) [6ba, (1-(2-Oxo-2-phenylethyl)-1H-1,2,3-triazol-4-yl)methyl (4R)-4-((3R,10S,12S,13R)-3,12-dihydroxy-10,13-dimethylhexadecahydro-1H-cyclopenta[a]phenanthren-17-yl)pentanoate] came in with a melting point of 143 to 144 °C. In addition, the viability at 10 µM in series [1] (Homo sapiens) came to 91.9%. In addition, the viability at 10 µM in series [2] (Mus musculus) was found to be 97.8%. In series [3], this compound displayed a viability at 48 h, 10 µM of 88.9%.
Compound `Cc1ccc(C(=O)Cn2cc(COC(=O)CC[C@@H](C)C3CCC4C5CCC6C[C@H](O)CC[C@]6(C)C5C[C@H](O)[C@@]43C)nn2)cc1` (stereo partly drawn) [6bb, (1-(2-Oxo-2-(p-tolyl)ethyl)-1H-1,2,3-triazol-4-yl)methyl (4R)-4-((3R,10S,12S,13R)-3,12-dihydroxy-10,13-dimethylhexadecahydro-1H-cyclopenta[a]phenanthren-17-yl)pentanoate] gave a melting point of 123 to 125 °C. In addition, the viability at 10 µM in series [1] (Homo sapiens) worked out at 67.6%. Also, the viability at 10 µM in series [2] (Mus musculus) turned out to be 85.7%. Besides, the viability at 48 h, 10 µM in series [3] was 89.2%.
`COc1ccc(C(=O)Cn2cc(COC(=O)CC[C@@H](C)C3CCC4C5CCC6C[C@H](O)CC[C@]6(C)C5C[C@H](O)[C@@]43C)nn2)cc1` (stereo partly drawn) [6bc, (1-(2-(4-Methoxyphenyl)-2-oxoethyl)-1H-1,2,3-triazol-4-yl)methyl (4R)-4-((3R,10S,12S,13R)-3,12-dihydroxy-10,13-dimethylhexadecahydro-1H-cyclopenta[a]phenanthren-17-yl)pentanoate] had a melting point of 144 to 145 °C. For the same compound, the viability at 10 µM in series [1] (Homo sapiens) was determined as 69.6%. Also, the viability at 10 µM in series [2] (Mus musculus) stood at 68.4%. In series [3], this compound returned a viability at 48 h, 10 µM of 90.8%.
Take `C[C@H](CCC(=O)OCc1cn(CC(=O)c2ccc(F)cc2)nn1)C1CCC2C3CCC4C[C@H](O)CC[C@]4(C)C3C[C@H](O)[C@@]21C` (stereo partly drawn) [6bd, (1-(2-(4-Fluorophenyl)-2-oxoethyl)-1H-1,2,3-triazol-4-yl)methyl (4R)-4-((3R,10S,12S,13R)-3,12-dihydroxy-10,13-dimethylhexadecahydro-1H-cyclopenta[a]phenanthren-17-yl)pentanoate]: the melting point lay within 127 to 128 °C. Further, the viability at 10 µM in series [1] (Homo sapiens) is 79.6%. Moreover, the viability at 10 µM in series [2] (Mus musculus) worked out at 52.4%. For the same compound, the viability at 48 h, 10 µM in series [3] turned out to be 89.4%.
The compound `C[C@H](CCC(=O)OCc1cn(CC(=O)c2ccc(Cl)cc2)nn1)C1CCC2C3CCC4C[C@H](O)CC[C@]4(C)C3C[C@H](O)[C@@]21C` (stereo partly drawn) [6be, (1-(2-(4-Chlorophenyl)-2-oxoethyl)-1H-1,2,3-triazol-4-yl)methyl (4R)-4-((3R,10S,12S,13R)-3,12-dihydroxy-10,13-dimethylhexadecahydro-1H-cyclopenta[a]phenanthren-17-yl)pentanoate] yielded a melting point of 92 to 93 °C. Also, the viability at 10 µM in series [1] (Homo sapiens) came to 68.5%. The viability at 10 µM in series [2] (Mus musculus) is 76%. The viability at 48 h, 10 µM in series [3] turned out to be 88.4%.
One may read the IC50 as the concentration that inhibits the measured activity by half. Low values mean greater potency, high ones weaker potency. `C[C@H](CCC(=O)OCc1cn(CC(=O)c2ccc(Br)cc2)nn1)C1CCC2C3CCC4C[C@H](O)CC[C@]4(C)C3C[C@H](O)[C@@]21C` (stereo partly drawn) [6bf, (1-(2-(4-Bromophenyl)-2-oxoethyl)-1H-1,2,3-triazol-4-yl)methyl (4R)-4-((3R,10S,12S,13R)-3,12-dihydroxy-10,13-dimethylhexadecahydro-1H-cyclopenta[a]phenanthren-17-yl)pentanoate] gave a melting point of 176 to 177 °C. The compound also gave an IC50 in series [1] of 18.3 ± 1.48 µM. The viability at 10 µM in series [1] (Homo sapiens) was determined as 44.4%. Further, the IC50 in series [1] (Homo sapiens, MCF7, 48 h) is less than 19 µM. Also, in series [2], inhibition was half-maximal at 9.68 ± 1.59 µM (IC50). Further, in series [2] (Mus musculus), the viability at 10 µM was 60.9% and the IC50 is less than 19 µM. In series [3], this compound showed a viability at 48 h, 10 µM of 86.8%.
Consider `C[C@H](CCC(=O)NCc1cn(CC(=O)c2ccccc2)nn1)C1CCC2C3C(C[C@H](O)[C@@]21C)[C@@]1(C)CC[C@@H](O)CC1C[C@H]3O` (stereo partly drawn) [6ca, (4R)-N-((1-(2-Oxo-2-phenylethyl)-1H-1,2,3-triazol-4-yl)methyl)-4-((3R,7R,10S,12S,13R)-3,7,12-trihydroxy-10,13-dimethylhexadecahydro-1H-cyclopenta[a]phenanthren-17-yl)pentanamide], for which the melting point was 148 to 149 °C. Further, in series [1] (Homo sapiens), the viability at 10 µM is 92.1%. In series [2] (Mus musculus), the viability at 10 µM stood at 85.2%. The compound further registered a viability at 48 h, 10 µM in series [3] of 90.1%.
`Cc1ccc(C(=O)Cn2cc(CNC(=O)CC[C@@H](C)C3CCC4C5C(C[C@H](O)[C@@]43C)[C@@]3(C)CC[C@@H](O)CC3C[C@H]5O)nn2)cc1` (stereo partly drawn) [6cb, (4R)-N-((1-(2-Oxo-2-(p-tolyl)ethyl)-1H-1,2,3-triazol-4-yl)methyl)-4-((3R,7R,10S,12S,13R)-3,7,12-trihydroxy-10,13-dimethylhexadecahydro-1H-cyclopenta[a]phenanthren-17-yl)pentanamide] came in with a melting point of 129 to 131 °C. The viability at 10 µM in series [1] (Homo sapiens) turned out to be 61.9%. In series [2] (Mus musculus), the viability at 10 µM is 96.7%. Further, the viability at 48 h, 10 µM in series [3] worked out at 86%.
As to `COc1ccc(C(=O)Cn2cc(CNC(=O)CC[C@@H](C)C3CCC4C5C(C[C@H](O)[C@@]43C)[C@@]3(C)CC[C@@H](O)CC3C[C@H]5O)nn2)cc1` (stereo partly drawn) [6cc, (4R)-N-((1-(2-(4-Methoxyphenyl)-2-oxoethyl)-1H-1,2,3-triazol-4-yl)methyl)-4-((3R,7R,10S,12S,13R)-3,7,12-trihydroxy-10,13-dimethylhexadecahydro-1H-cyclopenta[a]phenanthren-17-yl)pentanamide], the viability at 10 µM in series [1] (Homo sapiens) turned out to be 95.4%; in series [2] (Mus musculus) it was 56.8%. The same compound returned a viability at 48 h, 10 µM in series [3] of 96.8%.
Regarding `CC(=O)O[C@@]12CO[C@@H]1C[C@H](O)[C@@]1(C)C(=O)[C@H](O)C3=C(C)[C@@H](OC(=O)[C@H](O)[C@@H](NC(=O)OC(C)(C)C)c4ccccc4)C[C@@](O)([C@@H](OC(=O)c4ccccc4)[C@H]21)C3(C)C` [DTX, Docetaxel, reference compound], the viability at 10 µM in series [1] (Homo sapiens) is 46.5%; in series [2] (Mus musculus), 56.9%. Moreover, the IC50 in series [1] (Homo sapiens, MCF7, 48 h) amounted to 9.46 ± 0.98 µM; in series [2] (Mus musculus) it was 13.8 ± 1.07 µM.
